In patent US20110027325A1, “ORALLY-ADMINISTERED AGENT” (Lintec Corporation, priority 2008, published 2011):

Experiment: Viscosity of aqueous solution, E-type viscometer
Type: physicochemical
Settings: 37° C.
Description: Tables 1 and 2 shown the constituent materials of the respective layers of the orally-administered agents obtained in the respective Examples and the respective Comparative Examples and the contents thereof. […] Furthermore, the viscosity of the water absorption promoter in the Table 1 and the viscosity of the antiadhesive agent in the Table 2 denote a viscosity at 37° C. of an aqueous solution of 5 mass % of the water absorption promoter and the antiadhesive agent, respectively. Each viscosity was measured with an E-type viscometer (a product of Tokimec, Inc.).

## OC[C@@H](O)[C@@H](O)[C@H](O)[C@H](O)CO [Man, mannitol]
Aqueous solution of 5 mass % of the antiadhesive agent
  Viscosity of antiadhesive agent: 0.87 mPa · s
Aqueous solution of 5 mass % of the water absorption promoter
  Viscosity of water absorption promoter: 0.87 mPa · s
